Test results reported in PMC3589414, “Regulation of ASPP2 Interaction with p53 Core Domain by an Intramolecular Autoinhibitory Mechanism” (PLoS ONE, 2013).
“And” between values parts separate entries of the source, which are not always exact repeats. Identical values can stand only once. “Also recorded” adds a separate entry of the source. Where a SMILES comes first, the peptide text is derived from it. Where no end group is shown, it is not given here. The star is where a group is joined. 5FAM = O=C1OC2(c3ccc(O)cc3Oc3cc(O)ccc32)c2ccc(C(=O)*)cc21

How the values were obtained:
[1] = test system: complex between p53CD and Fl-ASPP2 1089–1097; assay: Fluorescence anisotropy competition: competitor added to complex of Fl-ASPP2 1089–1097 and p53CD; type: binding; details: 200 µl of 130 µM competitor added to 87 nM Fl-ASPP2 1089–1097 and 6.5 µM p53CD, 50 mM Hepes pH 7.0, IS = 20 mM, 10 mM βME, 10°C
Experimental: (§1) In the competition experiments, the conditions were as follows: 100–200 µl of competitor peptide or protein were added to a 1200 µl mixture of 83 nM Fl-ASPP2 722–737 and 8.3 µM ASPP2 Ank-SH3 at 20 mM Hepes pH 7.0, IS = 50 mM, 5 mM βME; 200 µl of 130 µM of competitor peptide were added to a 1150-µl mixture of 87 nM Fl peptide ASPP2 1089–1097 and 6.5 µM p53CD at 50 mM Hepes pH 7.0, IS = 20 mM, 10 mM βME; 200 µl of 130 µM of Bcl-2 103–120 or Bcl-2 7–24 were added to a 1100 µl mixture of 87 nM Fl-NFκB 303–332 and 2.25 µM ASPP2 Ank-SH3 or to 1150 µl mixture of 87 nM Fl-ASPP2 722–737 and 4.5 µM ASPP2 Ank-SH3 at 20 mM Hepes pH 7.0, IS = 50 mM, 5 mM βME. The K d of the competitor was calculated as described.

[2] = target: T1, complex between ASPP2 Ank-SH3 and Fl-NFκB 303–332 (Homo sapiens, UniProt Q13625); assay: Fluorescence anisotropy competition: competitor added to complex of Fl-NFκB 303–332 and ASPP2 Ank-SH3; type: binding; details: Bcl-2 peptides: 200 µl of 130 µM added to 87 nM Fl-NFκB 303–332 and 2.25 µM ASPP2 Ank-SH3, 20 mM Hepes pH 7.0, IS = 50 mM; p53CD: IS = 150 mM; 10°C
T1 construct: pRSET HLT ASPP2 893–1128 vector; HLT (vector-encoded tag); made in house
T1 sequence (Q13625 893-1128): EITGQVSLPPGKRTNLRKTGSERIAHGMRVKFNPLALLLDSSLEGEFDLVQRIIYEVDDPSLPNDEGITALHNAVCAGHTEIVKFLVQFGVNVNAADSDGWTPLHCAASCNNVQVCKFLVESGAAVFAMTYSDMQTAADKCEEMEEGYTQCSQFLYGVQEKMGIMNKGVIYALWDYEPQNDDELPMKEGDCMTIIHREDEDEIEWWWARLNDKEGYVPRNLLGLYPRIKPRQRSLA
Experimental: as §1

[3] = target: T2, complex between ASPP2 Ank-SH3 and Fl-ASPP2 722–737 (Homo sapiens, UniProt Q13625); assay: Fluorescence anisotropy competition: competitor added to complex of Fl-ASPP2 722–737 and ASPP2 Ank-SH3; type: binding; details: 83–87 nM Fl-ASPP2 722–737, 8.3 µM (p53CD) or 4.5 µM (Bcl-2 peptides) ASPP2 Ank-SH3, 20 mM Hepes pH 7.0, IS = 50 mM, 5 mM βME, 10°C
T2 construct: pRSET HLT ASPP2 893–1128 vector; HLT (vector-encoded tag); made in house
T2 sequence (Q13625 893-1128): T1 sequence (Q13625 893-1128)
Experimental: as §1

[4] = target: T2, complex between ASPP2 Ank-SH3 and Fl-ASPP2 722–737; details: previously shown; cited from earlier work
Source text: Fl-NFκB 303–332 was previously shown to bind ASPP2 Ank-SH3 and compete with the Pro peptide ASPP2 722–737 [13]. We thus assumed that NFκB 303–332 also binds the SH3 domain of ASPP2, similar to p53CD and the ASPP2 Pro peptide. […] The Bcl-2 BH4 peptide (residues 7–24) binds the RT loop of ASPP2 in different residues than the p53 loop3 [14], [22]. […] However, p53CD displaced Fl-NFκB 303–332 from its complex with ASPP2 Ank-SH3. ...

[5] = target: T3, ASPP2 n-src peptide (residues 1089–1097) (Homo sapiens, UniProt Q13625); assay: Fluorescence anisotropy titration into Fl-ASPP2 n-src peptide; type: binding; details: 20 mM Hepes pH 7.0, IS 50 mM, 5 mM βME, data not shown
T3 construct: fluorescein-labeled (Fl) ASPP2 n-src peptide (residues 1089–1097); made in house; host or cells: chemical peptide synthesis

[6] = test system: complex between Fl-ASPP2 1089–1097 and ASPP2 722–737; assay: Fluorescence anisotropy competition: p53CD added to complex of Fl-ASPP2 1089–1097 and ASPP2 722–737; type: binding; details: Figure 2A
Experimental: A major p53-interacting site in ASPP2 SH3 is situated in the n-src loop between residues 1089–1097 [14], [27] (Figure 1A, B). […] The ASPP2 Pro peptide (residues 722–737) was titrated into the fluorescein-labeled (Fl) ASPP2 n-src peptide (residues 1089–1097). […] In the opposite experiment p53CD was added to a pre-formed complex between the ASPP2 Pro peptide and the Fl-ASPP2 n-src peptide (Figure 2A).

[7] = target: Bcl-2 peptide 7-24 (Homo sapiens) (UniProt P10415); assay: fluorescence anisotropy; details: cited from earlier work
[8] = test system: R175H and R273H mutant p53; details: cited from earlier work
Source text: (§2) It is possible that the peptide inhibits the intramolecular interaction in ASPP2 and thus activates the p53-ASPP2 interaction that ...

HCT116 p53−/− cells = details: cited from earlier work
Source text: as §2

[9] = test system: colorectal carcinoma HCT116 cells; details: cited from earlier work
Source text: as §2

p53 R249S mutant = details: back towards wild-type-like structure; cited from earlier work
Source text: (§3) The TP53 gene encoding p53 is frequently mutated in human cancers and most of these reported mutations are in the DNA-binding core domain of the protein (p53CD), [25]. Some of these mutations lower the thermodynamic stability of p53, resulting in its unfolding and inactivation.

p53CD = details: 37°C, concentration-dependent; cited from earlier work
Source text: as §3

p53CD mutant I195T = details: to levels similar to wild-type; cited from earlier work
Source text: as §3

[10] = target: T4, Fl-ASPP2 1089–1097 (fluorescein-labelled ASPP2 n-src loop peptide); assay: fluorescence polarisation; fluorescence anisotropy; p53CD or ASPP2 722–737 titrated into 100 nM Fl-ASPP2 1089–1097 in the cuvette; 10°C; 50 mM Hepes pH 7.0, 10 mM NaCl, 10 mM βME; 1:1 binding model; details: both partners purified
T4 construct: ASPP2 n-src loop of the SH3 domain, residues 1089-1097; also called Fl-ASPP2 n-src peptide; Fl-n-src peptide; source: synthetic peptide
T4 peptide: fluorescein-REDEDEIEW

[11] = target: T5, ASPP2 Ank-SH3 (ASPP2 893–1128) (UniProt Q13625 893-1128); assay: fluorescence polarisation; fluorescence anisotropy; ASPP2 Ank-SH3 titrated into 100 nM fluorescein-labelled peptide; 10°C; 20 mM Hepes pH 7.0, 5 mM βME; ionic strength 50 mM (told for the competitions done on these complexes); 1:1 binding model; details: both partners purified
T5 construct: ASPP2, four ankyrin repeats and SH3 domain, residues 893-1128
T5 sequence (looked up): T1 sequence (Q13625 893-1128)

[12] = target: T5, ASPP2 Ank-SH3 (ASPP2 893–1128); assay: fluorescence polarisation; fluorescence anisotropy; ASPP2 Ank-SH3 titrated into Fl-NFκB 303–332; 10°C; 20 mM Hepes pH 7.0, 5 mM βME; ionic strength 150 mM (told for the competition done on this complex); details: both partners purified

RRYRRDFAEMSSQLHLTP [Bcl-2 103–120]
Displacement of p53CD from its complex with Fl-ASPP2 n-src peptide 1089–1097 by non-labeled peptide [1]: did not compete
Displacement of Fl-NFκB 303–332 from its complex with ASPP2 Ank-SH3 [2]: did not displace; also recorded: did not compete
Displacement of Fl-ASPP2 722–737 from its complex with ASPP2 Ank-SH3 [3]: did not displace; also recorded: did not compete

NFκB 21–50: unlabeled peptide derived from the ASPP2-binding sites in NFκB (VEIIEQPKQRGMRFRYKCEGRSAGSIPGER)
Displacement of p53CD from its complex with Fl-ASPP2 n-src peptide 1089–1097 by non-labeled peptide [1]: did not compete

KRTYETFKSIMKKSPFSGPTDPRPPPRRIA [NFκB 303–332]
Competition of NFκB 303–332 with Pro peptide ASPP2 722–737 for ASPP2 Ank-SH3 [4]: competed
Displacement of p53CD from its complex with Fl-ASPP2 n-src peptide 1089–1097 by non-labeled peptide [1]: did not compete
Binding of NFκB 303–332 to the n-src loop peptide [5]: did not bind

p53CD: recombinant p53 DNA-binding core domain, residues 94–312, expressed in E. coli
Anisotropy change on adding p53CD to pre-formed complex of ASPP2 Pro peptide and Fl-ASPP2 n-src peptide [6]: the final anisotropy level increased
Displacement of Fl-NFκB 303–332 from its complex with ASPP2 Ank-SH3 [2]: displaced
Displacement of Fl-ASPP2 722–737 from its complex with ASPP2 Ank-SH3 [3]: displaced

ASPP2 Ank-SH3 Ank-SH3 (from UniProt Q13625)
Kd [7]: 4700 nM

YDNREIVMKYIHYKLSQR [Bcl-2 7–24, Bcl2 BH4 derived peptide, residues 7–24]
Displacement of p53CD from its complex with Fl-ASPP2 n-src peptide 1089–1097 by non-labeled peptide [1]: did not compete
Displacement of Fl-NFκB 303–332 from its complex with ASPP2 Ank-SH3 [2]: did not displace; also recorded: did not compete
Displacement of Fl-ASPP2 722–737 from its complex with ASPP2 Ank-SH3 [3]: did not displace; also recorded: did not compete

CC[C@H](C)[C@H](NC(=O)[C@H](CCCNC(=N)N)NC(=O)[C@H](CCCNC(=N)N)NC(=O)[C@@H]1CCCN1C(=O)[C@@H]1CCCN1C(=O)[C@@H]1CCCN1C(=O)[C@H](CCCNC(=N)N)NC(=O)[C@@H]1CCCN1C(=O)[C@H](CC(=O)O)NC(=O)[C@@H](NC(=O)[C@@H]1CCCN1C(=O)CNC(=O)[C@H](CO)NC(=O)[C@H](Cc1ccccc1)NC(=O)[C@@H]1CCCN1C(=O)[C@H](CO)NC(=O)[C@H](CCCCN)NC(=O)[C@H](CCCCN)NC(=O)[C@H](CCSC)NC(=O)[C@@H](NC(=O)[C@H](CO)NC(=O)[C@H](CCCCN)NC(=O)[C@H](Cc1ccccc1)NC(=O)[C@@H](NC(=O)[C@H](CCC(=O)O)NC(=O)[C@H](Cc1ccc(O)cc1)NC(=O)[C@@H](NC(=O)[C@H](CCCNC(=N)N)NC(=O)[C@H](CCCCN)NC(=O)c1ccc2c(c1)C(=O)OC21c2ccc(O)cc2Oc2cc(O)ccc21)[C@@H](C)O)[C@@H](C)O)[C@@H](C)CC)[C@@H](C)O)C(=O)N[C@@H](C)C(N)=O [Fl-NFκB 303–332] (5FAM-KRTYETFKSIMKKSPFSGPTDPRPPPRRIA-NH2)
Competition of NFκB 303–332 with Pro peptide ASPP2 722–737 for ASPP2 Ank-SH3 [4]: compete

REDEDEIEW [ASPP2 1089–1097, nine-residue peptide derived from ASPP2 n-src loop (residues 1089–1097), also termed CDB3]
Conformation of R175H and R273H mutant p53 in cells [8]: restored the wild-type conformation
Sensitization to apoptosis induced by γ-irradiation (HCT116 p53−/− cells): not
Sensitization to apoptosis induced by γ-irradiation [9]: sensitize
Structural effects of mutation in p53 R249S (p53 R249S mutant): rescued the structural effects of mutation
Unfolding of p53CD (p53CD): slowed down the unfolding
Specific DNA binding activity of p53CD mutant I195T (p53CD mutant I195T): restored the specific DNA binding activity

B1: ASPP2 722–737 (ASPP2 Pro peptide, non-labelled) (peptide)
peptide: WRKKLSNAPRPLKKRSS
notes: Trp added at the N terminus of the peptide for UV spectroscopy; A natural stretch with one added N-terminal Trp; source: synthetic peptide
Kd [10]: 500 ± 30 nM

B2: Fl-ASPP2 722–737 (fluorescein-labelled ASPP2 Pro peptide) (peptide)
peptide: fluorescein-WRKKLSNAPRPLKKRSS
notes: Trp added at the N terminus of the peptide for UV spectroscopy; also called Fl-ASPP2 Pro peptide; source: synthetic peptide
Kd [11]: 680 nM and 820 nM

B3: Fl-NFκB 303–332 (fluorescein-labelled NFκB p65 peptide) (peptide)
peptide: fluorescein-KRTYETFKSIMKKSPFSGPTDPRPPPRRIA
notes: also called NFκB peptide; source: synthetic peptide
Kd [12]: 470 ± 20 nM
Kd [11]: 130 ± 10 nM
